{
  "source": "patent US20020009713A1",
  "about": "“Methods for identifying modulators of neuronal growth” (priority 2000, published 2002)",
  "key": {"sympathetic neurons [1]": {"test_system": "sympathetic neurons", "assay": "Quantitative dot-blot of MAP2 association with microtubules and microtubule stability", "type": "cell-based, rat", "settings": "for amount of MAP2 bound to microtubules: two days", "method": "FIG. 22 is a schematic illustration showing immuno-dot blot analysis of MAP2 association and tubulin dynamics in SCG neurons. […]\n(§1) Microtubules were isolated from cultured sympathetic neurons, and the relative amount of MAP2 present per microgram tubulin was determined using quantitative dot-blot analysis. […] Depolarization enhances MAP2 levels and CamKII phosphorylation in sympathetic neurons. We performed western blot analysis of sympathetic neurons treated with 10 ng/ml NGF, 50 mM KCl, or NGF+KCl. Lysates containing equal amounts of protein were separated by SDS-PAGE, transferred to nitrocellulose, and then probed for MAP2, phosphorylated-CamKII, phosphorylated-ERKs, or total ERK protein. KCl increases the amount of MAP2 present in sympathetic neurons, and enhances CamKII phosphorylation.\n(§2) Inhibition of either CamKII or MEK is sufficient to inhibit activitydependent dendrite formation. Immunocytochemical analysis for MAP2 on sympathetic neurons cultured in the presence of NGF+KCl with or without 10 um KN62, 75 um PD98059, 100 nM H-89 or 10 uM forskolin. […] In this study, microtubule stability was determined in sympathetic neurons maintained in NGF or NGF+KCl, and treated with selective pharmacological inhibitors."}, "sympathetic neurons [2]": {"test_system": "sympathetic neurons", "assay": "Western blot / biochemical analysis of MAP2, phosphorylated-CamKII and phosphorylated-ERKs", "type": "cell-based, rat", "settings": "for MAP2 levels: FIG. 27, NGF, KCl and kinase inhibitors", "method": "as §1"}, "rat sympathetic neurons [3]": {"test_system": "rat sympathetic neurons", "assay": "MTT survival assay of cultured sympathetic neurons", "type": "cell-based", "method": "Neurons were plated at low density (approximately one ganglion/well) in Nunclon™ 4-well culture dishes (Gibco BRL, Burlington, Ontario, Canada), coated with either rat tail collagen or poly-D-lysine and laminin (both from Collaborative Biomedical Products, Bedford, Mass.). Culture medium was UltraCulture (BioWhittaker, Walkersville, Md.), supplemented with 3% rat serum (Harlan Bioproducts, Madison, Wis.), 2 mM glutamine, 100 U/ml penicillin, 100 μg/ml streptomycin (all from BioWhittaker), and for the first two days, 7 μM cytosine arabinoside (Sigma-Aldrich Canada Ltd., Oakville, Ontario, Canada).\n(§3) NGF-dependent neurons were selected by culturing sympathetic neurons for five days in the presence of 50 ng/ml NGF. Neurons were washed three times for one hour each in neurotrophin-free media, and were then fed with media containing 10 ng/ml NGF alone, or various concentrations of NGF plus either 100 ng/ml BDNF, 10 μg/ml αBDNF, or a 1:100 dilution of antiserum containing the p75^NTR antibody, REX (Weskamp and Reichardt, Neuron 6: 649-663, 1991). Each condition was repeated in triplicate, and analysis of survival was performed 48 hours later by using nonradioactive cell proliferation (MTT) assays (Celltitre 96; Promega; Belliveau et al., J. Cell Biol. 136:375-388, 1997). Specifically, 50 μl of the MTT reagent was added to 500 μl media in each well, and incubated for two hours at 37° C. After aspiration of the MTT containing media, 100 μl of a 0.065N HCl/isopropanol mixture was added to each well to lyse the cells, and colorimetric analysis was performed using an ELISA reader. For rat sympathetic neurons, 10 ng/ml NGF represents 100% survival, therefore all other values were considered to be relative to 10 ng/ml NGF. For mouse neurons, 7.5 ng/ml NGF represents 100% survival, and was thus considered to be the 100% survival threshold for neuritogenesis experiments."}, "ERK, Akt, CamKII": {"test_system": "ERK, Akt, CamKII", "assay": "Check of inhibitor selectivity for ERK, Akt and CamKII pathways", "type": "cell-based"}, "sympathetic neurons [4]": {"test_system": "sympathetic neurons", "assay": "Activity-dependent dendrite formation, MAP2 immunocytochemistry and image analysis", "type": "cell-based, rat", "settings": "for activity-dependent dendrite formation (MAP2): NGF+KCl, 10 um KN62, 75 um PD98059", "method": "Dendritic growth can be measured as follows. Ninty-six-well plates are coated for […] with rat tail collagen (prepared in a dilution of 1% glacial acetic acid). After one hour, excess collagen is aspirated and allow to dry completely. SCG neurons are dissected, triturated and plated. Cells may also be plated onto 8-well chamber slides. Cells are fed after about three days and, after about five days, are switched to either 50 mM KCl or 10 ng/ml NGF+50 mM KCl for about three additional days. Neurons are washed briefly with PBS and then fixed for 10 minutes with 4% formaldehyde in PBS (freshly prepared). Excess fixative is removed by 3×5 min washes with PBS. Cells are stained for one hour at room temperature with the following antibodies with 3×5 min PBS washes after each incubation: primary antibody—mouse monoclonal IgG1 anti high molecular weight MAP2 (clone AP20, from Sigma), secondary antibody—donkey anti mouse CY3, minimum cross to mouse and rabbit (Jackson Immunochemicals). Cell are mounted and at least three fields of view are captured using an upright fluorescence microscope using 530 excitation/580 emission filters. For each individual neuron in a given field (minimum 250 neurons total), the distance of MAP2 positive staining from the perimeter of the cell body is measured. These measurements are performed and tabulated using NIH image. The tabulated data are then expressed as a population histogram, binning all the measured lengths into 2 μm bins. This analysis gives an overall measure of the extent of dendritic differentiation in the population.\nNeuronal depolarization causes dendrite formation in cultured sympathetic neurons, and NGF enhances this dendritogenesis. FIGS. 19A-19C, 20A, 20B show immunocytochemical analysis of sympathetic neurons cultured in the presence of NGF, switched to 10 ng/ml NGF, 50 mM KCl, or 10 ng/ml NGF+50 mM KCl for two days, and then stained for the dendrite-specific protein MAP2. FIGS. 20A and 20B are high magnification views of fields similar to those shown at lower-magnification in FIGS. 19A and 19C, respectively. The MAP2-immunoreactive processes show morphology characteristic of dendrites. The amount of dendritic formation could be readily quantified.\nas §2"}, "[5]": {"test_system": "mouse sympathetic neurons", "assay": "MTT survival assay of mouse sympathetic neurons", "type": "cell-based", "method": "CD-1 mouse sympathetic neurons were cultured by a modification of the method used to prepare rat neurons. Mouse cultures were essentially prepared the same way, but were dissociated in UltraCulture medium rather than Hanks' balanced saline solution. 3% fetal bovine serum (Gibco) was used instead of rat serum, and 3.5 μM cytosine arabinoside was added to the culture medium on day one post-plating.\nas §3, with “Each condition was repeated in triplicate, and analysis of survival was performed 48 hours later by using nonradioactive cell proliferation (MTT) assays (Celltitre 96; Promega; Belliveau et al., J.” left out, “For mouse neurons, 7.5 ng/ml NGF represents 100% survival, and was thus considered to be the 100% survival threshold for neuritogenesis experiments.” left out"}, "rat sympathetic neurons [6]": {"test_system": "rat sympathetic neurons", "assay": "In vitro neuritogenesis assay (neuritic process density)", "type": "cell-based", "settings": "100 ng/ml BDNF in 10 ng/ml NGF, two days, six experiments", "method": "Regulation of neuronal growth was analyzed by an in vitro neuritogenesis assay. Postnatal day one rat sympathetic neurons were cultured in 50 ng/ml NGF for two to three days in order to upregulate p75^NTR, whose increased expression in response to NGF occurs independently of neuronal survival. Following a one hour wash in neurotrophin-free medium, cultures were maintained for an additional two days in 10 ng/ml NGF plus or minus 100 ng/ml BDNF. Fields in sister cultures containing a similar number of neuronal cell bodies were then photographed, and neuritic process density was determined as described below. […]\nQuantitative analysis was performed by using common statistics applied to random sets of lines and determining the number of intersection points per unit area. […] Low density fields were photographed, and the number of visible intersections and bifurcations of cell processes per unit area was considered to be a quantitative measure of process density. Since the number of neurites is a direct function of the number of neurons, however, the number of intersections and bifurcations counted per unit area was normalized to the number of cell bodies in that same area of interest. […] Results are expressed as the mean density plus or minus the standard error of the mean."}, "[7]": {"test_system": "murine sympathetic neurons", "assay": "Neuritogenesis assay in wild type and p75NTR-/- murine sympathetic neurons", "type": "cell-based, mouse", "settings": "7.5 ng/ml NGF plus 100 ng/ml BDNF"}, "TrkB": {"test_system": "TrkB", "assay": "BDNF neutralization: TrkB tyrosine phosphorylation in TrkB-expressing NIH-3T3 cells", "type": "cell-based", "settings": "50 ng/ml BDNF, five minutes", "method": "To test the capacity of anti-BDNF to neutralize BDNF, TrkB-expressing NIH-3T3 cells were cultured in Dulbecco's modified Eagle medium. Briefly, cells were washed twice and incubated for one hour at 37° C. in buffer, followed by a 30 minute wash at 37° C. in a phosphate-free buffer. Treatment consisted of incubating cells for five minutes with either 50 ng/ml BDNF (Promega) or with BDNF preabsorbed for four hours at 4° C. with increasing concentrations of the BDNF antibody (5-40 μg/ml). In addition, TrkB-3T3 cells were treated with medium only, or medium plus 40 μg/ml nonimmune chicken IgY. Following these treatments, cells were lysed, immunoprecipitated with anti-pan Trk (Hempstead et al., Neuron 9:883-896, 1992), and the immunoprecipitates analyzed for TrkB activation by Western blot analysis with phosphotyrosine antibody 4G10 (Upstate Biotechnology Inc., Lake Placid, N.Y.)."}, "[8]": {"settings": "10 ng/ml NGF added to 50 mM KCl"}},
  "data": [
    {"molecule": "[Cl-].[K+]", "note": "[KCl]", "values": [
      {"measurement": "amount of MAP2 bound to microtubules", "setting": "sympathetic neurons [1]; 50 mM KCl", "result": "greatly enhances"},
      {"measurement": "CamKII phosphorylation", "setting": "sympathetic neurons [2]; 50 mM KCl", "result": "enhances"},
      {"measurement": "amount of MAP2 present in sympathetic neurons", "setting": "sympathetic neurons [2]; 50 mM KCl", "result": "increases"}
    ]},
    {"molecule": "O=S(=O)(NCCNC/C=C/c1ccc(Br)cc1)c1cccc2cnccc12", "note": "[H-89]", "values": [
      {"measurement": "survival of sympathetic neurons (MTT)", "setting": "rat sympathetic neurons [3]; cultured in NGF or NGF+KCl", "result": "None of these compounds perturbs"}
    ]},
    {"molecule": "CN([C@@H](Cc1ccc(OS(=O)(=O)c2cccc3cnccc23)cc1)C(=O)N1CCN(c2ccccc2)CC1)S(=O)(=O)c1cccc2cnccc12", "note": "[KN-62]", "values": [
      {"measurement": "ERK or Akt activation", "setting": "ERK, Akt, CamKII", "result": "do not affect"},
      {"measurement": "activity-dependent dendrite formation (MAP2)", "setting": "sympathetic neurons [4]", "result": "completely abolished"},
      {"measurement": "KCl-induced increase in microtubule stability", "setting": "sympathetic neurons [1]; neurons maintained in NGF or NGF+KCl", "result": "completely inhibit"},
      {"measurement": "MAP2 levels", "setting": "sympathetic neurons [2]", "result": "reduce"},
      {"measurement": "survival of sympathetic neurons (MTT)", "setting": "rat sympathetic neurons [3]; cultured in NGF or NGF+KCl", "result": "None of these compounds perturbs"},
      {"measurement": "survival of sympathetic neurons (MTT)", "setting": "rat sympathetic neurons [3]; cultured only in 50 mM KCl", "result": "dramatically reduces"}
    ]},
    {"molecule": "COc1cccc(-c2cc(=O)c3ccccc3o2)c1N", "note": "[PD98059]", "values": [
      {"measurement": "CamKII activity", "setting": "ERK, Akt, CamKII", "result": "does not affect"},
      {"measurement": "activity-dependent dendrite formation (MAP2)", "setting": "sympathetic neurons [4]", "result": "completely abolished"},
      {"measurement": "MAP2 levels", "setting": "sympathetic neurons [2]", "result": "reduce"}
    ]},
    {"molecule": "NGF: nerve growth factor purified from mouse salivary glands (protein, UniProt P01139 122-241, looked up) Beta-nerve growth factor: SSTHPVFHMGEFSVCDSVSVWVGDKTTATDIKGKEVTVLAEVNINNSVFRQYFFETKCRASNPVESGCRGIDSKHWNSYCTTTHTFVKALTTDEKQAAWRFIRIDTACVCVLSRKATRRG", "values": [
      {"measurement": "mouse sympathetic neuron survival (MTT)", "setting": "[5]; 5, 7.5 and 10 ng/ml NGF, three days", "result": "maximal"},
      {"measurement": "KCl-dependent dendritic growth", "setting": "sympathetic neurons [4]; [8]", "result": "greatly enhances"},
      {"measurement": "dendritic growth (MAP2-positive dendrite length)", "setting": "sympathetic neurons [4]; 10 ng/ml NGF on its own", "result": "little ability to cause dendritic growth"},
      {"measurement": "amount of MAP2 bound to microtubules", "setting": "sympathetic neurons [1]; [8]", "result": "enhances this effect to some degree"},
      {"measurement": "ERK phosphorylation", "setting": "sympathetic neurons [2]; 10 ng/ml NGF compared with 50 mM KCl", "result": "more potent stimulator"}
    ]},
    {"molecule": "BDNF: brain-derived neurotrophic factor; recombinant human BDNF (protein, UniProt P23560 19-247, looked up) Neurotrophic factor BDNF …: APMKEANIRGQGGLAYPGVRTHGTLESVNGPKAGSRGLTSLADTFEHVIEELLDEDQKVRPNEENNKDADLYTSRVMLSSQVPLEPPLLFLLEEYKNYLDAANMSMRVRRHSDPARRGELSVCDSISEWVTAADKKTAVDMSGGTVTVLEKVPVSKGQLKQYFYETKCNPMGYTKEGCRGIDKRHWNSQCRTTQSYVRALTMDSKKRIGWRFIRIDTSCVCTLTIKRGR", "values": [
      {"measurement": "average decrease of process network density", "setting": "rat sympathetic neurons [6]", "result": 40, "unit": "%"},
      {"measurement": "mouse sympathetic neuron survival (MTT)", "setting": "[5]; 7.5 or 10 ng/ml NGF plus 100 ng/ml BDNF", "result": "did not affect"},
      {"measurement": "effect on growth", "setting": "[7]; p75NTR-/- neurons", "result": "no effect"},
      {"measurement": "average decrease of neuronal growth", "setting": "[7]; wild type mouse cultures", "result": 35, "unit": "%"},
      {"measurement": "tyrosine phosphorylation of TrkB", "setting": "TrkB", "result": "robust increase"},
      {"measurement": "sympathetic neuron survival (MTT)", "setting": "rat sympathetic neurons [3]; 100 ng/ml BDNF in 10 ng/ml NGF, two days", "result": "no effect"}
    ]}
  ]
}
